Assay results reported in article PMC6264317, “Acetylcholinesterase-inhibiting Alkaloids from Zephyranthes concolor” (Molecules, 2011).
Values after ≈ are worked out from the molar mass of the structure shown. Where two headings read alike, the source gives them in different places.

Legend:
[1] = test system: HIV-1; conditions: human MT4 cells; cited from earlier work
[2] = target: electric eel acetylcholinesterase; conditions: cited from earlier work
[3] = test system: HIV-1 (NL4-3); experiment: Anti-HIV activity in MT-4 cells (MTT viability of infected cells); format: cell-based; conditions: for EC50: Human immunodeficiency virus 1, NL43, MT4, 120 h, read-out: EC50 HIV-1 (NL4-3): effective concentration needed to inhibit 50% HIV-induced cell death, 5 days
Description: (§1) Anti-HIV activity and cytotoxicity were evaluated in human MT-4 cells based on viability of cells that have been infected or not infected with HIV-1 following exposure to various concentrations of the test compound according to the procedure previously described. After proliferation for 5 days the number of viable MT-4 cells was quantified by tetrazolium-based colorimetric method (MTT). The HIV-1 NL4-3 virus used was a molecular clone obtained from the National Institute of Health (Bethesda, USA) that was propagated and tittered in MT-4 cells. All anti-HIV evaluations were done in triplicate in two separate experiments.

[4] = Cytotoxicity in non-infected MT-4 cells (MTT); format: cell-based, human; conditions: human
Description: as §1

[5] = target: T1, electric eel acetylcholinesterase (Electrophorus electricus, UniProt O42275); experiment: biochemical
T1 construct: purchased Sigma Aldrich Chemie (Stenheim, Germany) type V-S
Description: The assay for measuring acetylcholinesterase (AChE) inhibitory activity was performed in 96 well microtitre plates as previously described. […] Acetylcholinesterase from Electrophorus electricus L. (electric eel) type V-S lyophilized powder, acetyl-thiocholine iodide (ATCI), and 5,5′-dithio-bis[2-nitrobenzoic acid] (DNTB) were obtained from Sigma Aldrich Chemie (Stenheim, Germany). Fifty microliters of AChE solution (500 U/mL) in phosphate buffer (8 mM K2HPO4, 2.3 mM NaH2PO4, 0.15 M NaCl, 0.05% Tween 20, pH 7.6), and 50 μL of the compound dissolved in the same buffer were added to each of the wells. The plates were incubated for 30 min at room temperature before addition of 100 μL of the substrate solution (0.1 M NaH2PO4, […], 0.6 mM ATCI in Millipore water, pH 7.5). Absorbance was recorded in a Labsystems Microplate Reader (Helsinki, Finland) at 405 nm after 6 min. Enzyme activity was calculated as percentage compared to an assay using a buffer without the tested compound. The AChE inhibitory data were analysed with the Prism software package (Graph Pad Inc., San Diego, USA).

[6] = test system: human MT4 cells; conditions: cited from earlier work
[7] = test system: human MT-4 cells; experiment: Cytotoxicity in non-infected MT-4 cells (MTT); format: cell-based; conditions: 5 days
Description: as §1

[8] = in vitro, read-out: EC50, inhibition of electric eel acetylcholinesterase in vitro
[9] = means ± SD of three determinations (10^−8 to 10^−3 M), read-out: EC50 (M), acetylcholinesterase inhibitory activity

T1 sequence (O42275 24-633): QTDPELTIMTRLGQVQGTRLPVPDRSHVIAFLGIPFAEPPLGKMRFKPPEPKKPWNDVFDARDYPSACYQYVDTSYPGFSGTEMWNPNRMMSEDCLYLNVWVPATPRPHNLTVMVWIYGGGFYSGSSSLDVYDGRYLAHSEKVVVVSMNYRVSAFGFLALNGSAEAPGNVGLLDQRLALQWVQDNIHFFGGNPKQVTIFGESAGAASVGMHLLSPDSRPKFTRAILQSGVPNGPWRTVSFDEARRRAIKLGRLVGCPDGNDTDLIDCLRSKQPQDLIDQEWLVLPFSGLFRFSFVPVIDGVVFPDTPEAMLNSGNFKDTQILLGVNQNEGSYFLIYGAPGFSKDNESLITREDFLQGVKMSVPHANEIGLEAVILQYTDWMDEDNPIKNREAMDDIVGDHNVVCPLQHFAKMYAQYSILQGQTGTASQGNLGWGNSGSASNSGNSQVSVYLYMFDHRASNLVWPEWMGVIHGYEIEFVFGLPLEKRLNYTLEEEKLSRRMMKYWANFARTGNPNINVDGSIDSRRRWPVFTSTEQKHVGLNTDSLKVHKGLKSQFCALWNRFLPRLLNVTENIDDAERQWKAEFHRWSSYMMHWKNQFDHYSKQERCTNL

COc1cc2c(cc1OC)[C@H]1[C@H]3C(=CC[C@H]1OC2=O)CCN3C [homolycorine]
therapeutic index TI50 [1]: even lower therapeutic indices than lycorine

COc1ccc2c3c1O[C@H]1C[C@H](O)C=C[C@@]31CCNC2 [Epinorgalanthamine (6), epinorgalanthamine]
EC50 ([2]; previously reported, read-out: acetylcholinesterase inhibitory properties): 9.6 µM | EC50 [3]: > 13 µg/mL | CC50 at 5 days [4]: 13 µg/mL (≈ 47.6 µM)

COC1C=CC23CCN(C)Cc4ccc(O)c(c42)OC3C1 (centres unmarked) [Chlidanthine (1), chlidanthine]
EC50 [5, 8]: 2.4e-05 M | EC50 [5, 9]: 2.41e-05 M | EC50 [3]: > 25 µg/mL | CC50 at 5 days [4]: > 25 µg/mL

O[C@H]1[C@H]2c3cc4c(cc3CN3CCC(=C[C@@H]1O)[C@H]23)OCO4 [Lycorine (4), lycorine]
anti-HIV-1 activity ID50 [1]: 0.4 µg/mL | therapeutic index TI50 [1]: 1.9 | acetylcholinesterase inhibitory activity in words [2]: inactive | EC50 [3]: > 0.5 µg/mL | CC50 at 5 days [4]: 0.48 µg/mL (≈ 1.67 µM) | cytotoxicity TC50 [6]: 0.75 µg/mL

Cc1ccnc2c1NC(=O)c1cccnc1N2C1CC1 [Nevirapine, reference compound]
EC50 [3]: 0.034 µg/mL (≈ 0.128 µM) | CC50 at 5 days [4]: > 2 µg/mL

COc1ccc2c3c1O[C@H]1C[C@@H](O)C=C[C@@]31CC[N+](C)([O-])C2 (some centres unmarked) [Galanthamine N-oxide (3), galanthamine N-oxide]
EC50 [5, 8]: 2.6e-05 M | EC50 [5, 9]: 2.62e-05 M | EC50 [3]: > 25 µg/mL | CC50 at 5 days [4]: > 25 µg/mL

CN1CC[C@@]23C=C[C@H](O)C[C@@H]2Oc2c(O)ccc(c23)C1 [sanguinine]
increase of the AChE inhibitory activity relative to galanthamine [2]: ~10 fold

c1cc(CN2CCCNCCNCCCNCC2)ccc1CN1CCCNCCNCCCNCC1 [AMD3100, reference compound]
EC50 [3]: 0.001 µg/mL (≈ 0.00199 µM) | CC50 at 5 days [4]: > 5 µg/mL

COc1ccc2c3c1O[C@H]1C[C@@H](O)CC[C@]31CCN(C)C2 [lycoramine]
acetylcholinesterase inhibitory activity in words [2]: completely lost

COc1cc2c(cc1O)[C@@H]1[C@H](OC2=O)[C@@H](OC)[C@@H]2O[C@@]23CCN(C)[C@@H]13 [Galwesine (5), galwesine]
acetylcholinesterase inhibition in words ([5]; at 10^−3 M): inactive | EC50 [5, 9]: > 0.001 M | EC50 [3]: > 71.4 µg/mL | CC50 at 5 days [4]: 71.4 µg/mL (≈ 206 µM)

Cc1cn([C@H]2C[C@H](N=[N+]=[N-])[C@@H](CO)O2)c(=O)[nH]c1=O [AZT, reference compound]
EC50 HIV-1 (NL4-3): effective concentration needed to inhibit 50% HIV-induced cell death ([3]; 5 days): 0.0007 µg/mL (≈ 0.00262 µM) | CC50 No virus: concentration needed to induce 50% death of non-infected cells [7]: >1 µg/mL

COc1ccc2c3c1O[C@H]1C[C@H](O)CC[C@@]31CCNC2 [epinorlycoramine]
acetylcholinesterase inhibitory activity in words [2]: completely lost

c1ccc2c(c1)ncc1cc3c(cc12)OCO3 [trisphaeri-dine, trisphaeridine]
therapeutic index TI50 [1]: even lower therapeutic indices than lycorine

COc1ccc2c3c1O[C@H]1C[C@@H](O)C=C[C@@]31CCN(C)C2 [Galanthamine (2), galanthamine, reference compound]
EC50 [3]: > 25 µg/mL | CC50 at 5 days [4]: > 25 µg/mL

CO[C@@H]1C=C[C@@]23c4cc5c(cc4CN(C[C@@H]2O)[C@H]3C1)OCO5 [haemanthamine]
therapeutic index TI50 [1]: even lower therapeutic indices than lycorine
